Assay results from US9113629B2, “4-amino-6-(4-substituted-phenyl)-picolinates and 6-amino-2-(4-substituted-phenyl)-pyrimidine-4-carboxylates and their use as herbicides” (DOW AGROSCIENCES LLC, priority 2013, dated 2015).
Like-named read-outs stand apart in the source and are kept apart here.

What was measured:
[1] = test system: Key Broadleaf Weed and Crop Species; assay: Post-emergent Test II herbicidal activity (Table 5); assay type: in vivo; details: post-emergence, 336 h, post-emergent, 14 days after application; for pest or weed control at 70 g/ha: 70 g ai/ha; for pest or weed control at 140 g/ha: 140 g ai/ha
Outline: (§1)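 Greenhouse post-emergent assay: seedlings (first/second true leaf) in Metro-Mix 360 were sprayed at 187 L/ha at a top rate plus twofold dilutions down to 1/16×; solvent-blank controls were included. Percent visual injury was read at 14 d.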

[2] = test system: Key Grass and Sedge Weeds as well as Grass Crops; assay: Post-emergent Test II herbicidal activity (Table 6); assay type: in vivo; details: post-emergence, 336 h; for pest or weed control at 70 g/ha: application rate 70 g ai/ha; for pest or weed control at 140 g/ha: application rate 140 g ai/ha
Outline: as §1

[3] = ABUTH: velvetleaf (Abutilon theophrasti), read-out: Visual Growth Reduction (%) 14 Days After Application ABUTH
[4] = AMARE: redroot pigweed (Amaranthus retroflexus), read-out: Visual Growth Reduction (%) 14 Days After Application AMARE
[5] = BRSNN: oilseed-rape, canola (Brassica napus), read-out: Visual Growth Reduction (%) 14 Days After Application BRSNN
[6] = CHEAL: lambsquarters (Chenopodium album), read-out: Visual Growth Reduction (%) 14 Days After Application CHEAL
[7] = EPHHL: wild poinsettia (Euphorbia heterophylla), read-out: Visual Growth Reduction (%) 14 Days After Application EPHHL
[8] = HELAN: sunflower (Helianthus annuus), read-out: Visual Growth Reduction (%) 14 Days After Application HELAN
[9] = VIOTR: wild pansy (Viola tricolor), read-out: Visual Growth Reduction (%) 14 Days After Application VIOTR
[10] = CYPES: yellow nutsedge (Cyperus esculentus), read-out: Visual Growth Reduction (%) 14 Days After Application, CYPES
[11] = DIGSA: crabgrass (Digitaria sanguinalis), read-out: Visual Growth Reduction (%) 14 Days After Application, DIGSA
[12] = ECHCG: barnyardgrass (Echinochloa crus-galli), read-out: Visual Growth Reduction (%) 14 Days After Application, ECHCG
[13] = ORYSA: rice (Oryza sativa), read-out: Visual Growth Reduction (%) 14 Days After Application, ORYSA
[14] = SETFA: giant foxtail (Setaria faberi), read-out: Visual Growth Reduction (%) 14 Days After Application, SETFA
[15] = SORVU: grain sorghum (Sorghum vulgare), read-out: Visual Growth Reduction (%) 14 Days After Application, SORVU
[16] = TRZSS (wheat, Triticum aestivum), read-out: Visual Growth Reduction (%) 14 Days After Application, TRZSS
[17] = ZEAMX: maize, corn (Zea mays), read-out: Visual Growth Reduction (%) 14 Days After Application, ZEAMX

SMILES: COC(=O)c1nc(-c2c(F)cc(I)c(F)c2F)cc(N)c1Cl [Compound 90]
- pest or weed control at 70 g/ha [1, 3]: 85 to 94%
- pest or weed control at 140 g/ha [1, 3]: 85 to 94%
- pest or weed control at 70 g/ha [1, 4]: 95 to 100%
- pest or weed control at 140 g/ha [1, 4]: 95 to 100%
- pest or weed control at 70 g/ha [1, 5]: 95 to 100%
- pest or weed control at 140 g/ha [1, 5]: 95 to 100%
- pest or weed control at 70 g/ha [1, 6]: 95 to 100%
- pest or weed control at 140 g/ha [1, 6]: 95 to 100%
- pest or weed control at 70 g/ha [1, 7]: 95 to 100%
- pest or weed control at 140 g/ha [1, 7]: 95 to 100%
- pest or weed control at 70 g/ha [1, 8]: 30 to 44%
- pest or weed control at 140 g/ha [1, 8]: 75 to 84%
- pest or weed control at 70 g/ha [1, 9]: 95 to 100%
- pest or weed control at 140 g/ha [1, 9]: 95 to 100%
- pest or weed control at 70 g/ha [2, 10]: 95 to 100%
- pest or weed control at 140 g/ha [2, 10]: 95 to 100%
- pest or weed control at 70 g/ha [2, 11]: 85 to 94%
- pest or weed control at 140 g/ha [2, 11]: 75 to 84%
- pest or weed control at 70 g/ha [2, 12]: 85 to 94%
- pest or weed control at 140 g/ha [2, 12]: 85 to 94%
- pest or weed control at 70 g/ha [2, 13]: 30 to 44%
- pest or weed control at 140 g/ha [2, 13]: 0 to 29%
- pest or weed control at 70 g/ha [2, 14]: 85 to 94%
- pest or weed control at 140 g/ha [2, 14]: 85 to 94%
- pest or weed control at 70 g/ha [2, 15]: 95 to 100%
- pest or weed control at 140 g/ha [2, 15]: 95 to 100%
- pest or weed control at 70 g/ha [2, 16]: 30 to 44%
- pest or weed control at 140 g/ha [2, 16]: 45 to 59%
- pest or weed control at 70 g/ha [2, 17]: 60 to 74%
- pest or weed control at 140 g/ha [2, 17]: 60 to 74%
- melting point: 176.2 to 178.7 °C
